The text below walks through data of patent publication US20090087431A1, “METHODS OF TREATING BONE DISORDERS WITH MODULATORS OF AXL” (Wyeth, priority 2007, published 2009).

One series relates to Clone 14 cells. The series is described as follows: Osteocalcin mRNA after siRNA transfection, osteoblast differentiation. Type of series: cell-based, murine. The conditions noted are these: all tested conditions (with and without BMP2), p<0.05. As for the experimental part: The role of Axl in osteoblast differentiation from an osteoprogenitor cell was investigated using RNA interference in the murine Clone 14 cell line. In these experiments, siRNA reagents against murine Axl were transfected into cells treated with either 0 ng/ml or 100 ng/ml BMP2. The induction of osteocalcin gene expression, an established osteoblast marker, was measured to assess osteoblast differentiation 4 days after the onset of treatment and transfection.
Clone 14 cells were seeded at 20,000 cells/well in a 96-well plate and cultured in DMEM media supplemented with 10% fetal bovine serum (FBS) and 1% L-glutamine. The following day, cells were transfected for 4 hours with siRNA at a final concentration of 20 nM using 0.5% (final) Lipofectamine2000 (Invitrogen, Carlsbad, Calif.). Cells were then cultured in DMEM supplemented with 1% FBS and 1% penicillin/streptomycin. […]
To assess the consequence of Axl knockdown on osteoblast differentiation, osteocalcin mRNA levels were monitored. […]
An additional negative control was the same non-specific, scrambled siRNA described above (NSP). Osteocalcin mRNA levels were monitored by real-time RT-PCR as above using the primers set forth in SEQ ID NO:9, SEQ ID NO:10, and SEQ ID NO:11 and shown below:
Osteocalcin mRNA levels are shown relative to those monitored in cells transfected with a scrambled, non-specific siRNA (NSP). […]

A further series deals with MC3T3-E1 cells. As to the kind of experiment: Formation of mineralized nodules, Alizarin red staining. Type of series: cell-based, murine. The note with it: 20 nM siRNA, Day 17 post-transfection, vs scrambled siRNA or mock. Here is the method: MC3T3-E1 cells were seeded at a density of 50,000 cells/well of a 6-well plate and cultured in Alpha media supplemented with 1% glutamine and 10% FBS. The following day the cells were transfected with 20 nM (final concentration) siRNA using 0.4% (final) Oligofectamine (Invitrogen) for 4 hours. The siRNAs used in this study include the pool of Axl siRNAs and the Cbfa1/Runx2 siRNA described above. In addition two control treatments were included: a mock transfection where no siRNA was introduced and a non-specific, scrambled siRNA (as described).
Following transfection, the cells were maintained in Alpha media supplemented with 1% glutamine, 10% FBS and 10 mM β-glycerophosphate, a cofactor necessary for mineralization, with no other osteogenic agents. […]
To determine mineralization, cells were washed in PBS, fixed in cold ethanol and stained with Alizarin red using standard protocols. Semi-quantification of the extent of mineralization was conducted by de-staining the cells in 10% Cetylpyridinium chloride in 10 mM sodium phosphate for 15 minutes at room temperature. Supernatants were removed and absorbance at 570 nm measured. Concentrations were determined by obtaining absorbance measurements of a standard curve of known dilutions of Alizarin red (range from 50-400 uM). Mineralization was visually assessed by the presence of red-stained nodules.

With “Runx2/Cbfa1: siRNA against Runx2/Cbfa1, 5′-CGUGAAUGGUCAUAAUAACU-3′; negative control (listed as RNA, chemistry not given here)”, the “osteoblast differentiation as monitored by osteocalcin mRNA expression” value in the series on Clone 14 cells is on record as “dramatically repressed”. In the series with MC3T3-E1 cells, the “extent of mineralization (visual, Alizarin red)” value is given as “dramatic reduction”.
